According to patent US20100310653A1, “USE OF AN EXTRACT MADE OF LEAVES OF GINKGO BILOBA” (DR. WILLMAR SCHWABE GMBH & CO. KG, priority 2007, published 2010):

Experiment: Concentration of lead substances in blood plasma against time after 120 mg Ginkgo extract tablet
Conditions: humans, one tablet with 120 mg Ginkgo extract, means of 12 test persons, FIG. 1
Excerpt: The presented values are means of 12 test persons. The administered amount is equal to the daily maximum dose, recommended by the monograph.

SMILES: CC(C)(C)[C@]1(O)CC2OC(=O)CC23C(=O)OC2OC(=O)[C@H](O)C231 (stereo partly shown) [bilobalide]
- concentration in blood plasma 12 hours after intake: very little concentrations
